Laboratory results from patent US20090137652A1, “METHODS FOR NEUROPROTECTION” (priority 2005, published 2009).
Several values for one entry are separate records, joined by “and”; a condition that tells them apart may be missing. Equal entries are not always repeated. Marks after values point to notes of the source that are not given here.

What was measured:
Type in all cases: in vivo, rat
[1] = test system: rats subjected to Li-pilo induced SE; assay: Mortality induced by lithium-pilocarpine status epilepticus (Example 1)
Experimental: Male Wistar rats weighing 225-250 g, provided by Janvier Breeding Center (Le Genest-St-lste, France) were housed under controlled standard conditions (light/dark cycle, 7.00 a.m.-7.00 p.m. lights on), with food and water available ad libitum. All animal experimentation was performed in accordance with the rules of the European Communities Council Directive of Nov. 24, 1986 (86/609/EEC), and the French Department of Agriculture (License No 67-97). For electrode implantation, rats were anesthetized by an i.p. injection of 2.5 mg/kg diazepam (DZP, Valium, Roche, France) and […] ketamine chlorhydrate (Imalgene 1000, Rhone Merrieux, France). Four single-contact recording electrodes were placed on the skull, over the parietal cortex, two on each side.
(§1) All rats received lithium chloride (3 meq/kg, i.p., Sigma, St Louis, Mo., U.S.A.); about 20 h later, animals were placed into plexiglas boxes, in order to record baseline cortical EEG. Methylscopolamine bromide (1 mg/kg, s.c., Sigma) was administered to limit the peripheral effects of the convulsant. SE was induced by injecting pilocarpine hydrochloride (25 mg/kg, s.c., Sigma) 30 min after methyl-scopolamine. The bilateral EEG cortical activity was recorded during the whole duration of SE and behavioral changes were noted.
(§2) The effects of increasing doses of the test compound were studied on 3 groups of rats. The animals of the first group received 10 mg/kg of the test compound, i.p., 1 h after the onset of SE (pilo-TC10) while the animals of groups 2 and 3 received 30 and 60 mg/kg of the test compound (pilo-TC30 and pilo-TC60), respectively.
(§3) Another group was injected with 2 mg/kg diazepam (DZP, i.m.) at 1 h after the onset of SE. This is a standard treatment to improve animals survival after SE (pilo-DZP). The control group received saline instead of pilocarpine and the test compound (saline-saline). The pilo-test compound rats surviving SE were then injected about 10 h after the first test compound injection with a second i.p. injection of the same dose of the test compound and were maintained under a twice daily treatment with the test compound for 6 additional days. Pilo-DZP received a second injection of 1 mg/kg DZP on the day of SE at about 10 h after the first one. Thereafter, Pilo-DZP and saline-saline rats received twice daily an equivalent volume of saline.
The difference was statistically significant (p<0.01).

[2] = test system: rats subjected to Li-pilo induced SE; assay: Latency to and frequency of spontaneous recurrent seizures (SRS), lithium-pilocarpine model (Example 1)
Experimental: as §1, §2, §3
The effects of the test compound on the EEG and on the latency to occurrence of SRS were investigated by daily video recording of the animals for 10 h per day and the recording of the electrographic activity twice a week for 8 h.
To calculate the frequency of SRS in pilocarpine-exposed rats, the seizure severity and distinguished stage III (clonic seizures of facial muscles and anterior limbs) and stage IV-V seizures (rearing and falling) was considered. The frequency of stage III SRS per week in pilo-DZP and pilo-test compound rats was variable amongst the groups. It was low, constant in the pilo-DZP and pilo-TC60 (with early SRS onset) groups during the first 3 weeks and had disappeared during the 4th week in the pilo-DZP group. […] The frequency of more severe stage IV-V SRS was highest during the first week in most groups, except pilo-TC30 and TC60 with late seizure onset where the SRS frequency was constant over the whole 4 weeks in TC30 group and over the first two weeks in the pilo-TC60 group with late SRS onset in which no stage IV-V seizures where no seizures recorded after the second week.

[3] = test system: rats subjected to li-pilo SE; assay: Mortality over the first 48 h after lithium-pilocarpine SE (Example 2)
Experimental: Adult male Sprague-Dawley rats provided by Janvier Breeding Center (Le Genest-St-Isle, France) were housed under controlled, uncrowded standard conditions at 20-22° C. (light/dark cycle, 7.00 a.m.-7.00 p.m. lights on), with food and water available ad libitum. All animal experimentation was performed in accordance with the rules of the European Communities Council Directive of Nov. 24, 1986 (86/609/EEC), and the French Department of Agriculture (License No 67-97).
(§4) All rats received lithium chloride (3 meq/kg, i.p., Sigma, St Louis, Mo., U.S.A.) and about 20 h later, all animals received also methylscopolamine bromide (1 mg/kg, s.c., Sigma) that was administered to limit the peripheral effects of the convulsant. SE was induced by injecting pilocarpine hydrochloride (25 mg/kg, s.c., Sigma) 30 min after methylscopolamine. The effects of increasing doses of TC (RWJ) were studied in 5 groups of rats. […] The control group received vehicle instead of pilocarpine and TC. The rats surviving SE were then injected about 10 h after the first TC injection with a second i.p. injection of 1.25 mg/kg DZP for the DZP group or of the same dose of TC as in the morning and were maintained under a twice daily TC treatment (s.c.) for 6 additional days while DZP rats received a vehicle injection.
A total number of 143 Sprague-Dawley rats weighing 250-330 g were subjected to lithium-pilocarpine (Li-pilo)-induced SE. […] The behavioral characteristics of SE were identical in both li-pilo-DZP and li-pilo-TC groups. Within 5 min after pilocarpine injection, rats developed diarrhea, piloerection and other signs of cholinergic stimulation. […] Recurrent seizures started around 15-20 min after pilocarpine administration. These seizures which associated episodes of head and bilateral forelimb myoclonus with rearing and falling progressed to SE at about 35-40 min after pilocarpine, as previously described (Turski et al., 1989; Dube et al., 2001; Andre et al., 2003). The control group not subjected to SE and receiving lithium and saline was composed of 20 rats.

[4] = test system: rats subjected to li-pilo SE; assay: Latency to and frequency of spontaneous seizures by video recording, lithium-pilocarpine model (Example 2)
Experimental: as §4
The effects of DZP and the 4 doses of TC on epileptogenesis were investigated by daily video recording of the animals for 10 h per day. Video recording was performed for 4 weeks during which the occurrence of the first seizure was noted as well as the total number of seizures over the whole period. Animals were then taken off the video recording system and kept for 4 additional weeks in our animal facilities before they were sacrificed after a total period of 8 weeks of epilepsy.
For neuronal damage and epileptogenesis, statistical analysis between groups was performed by means of a one-way analysis of variance followed by a post-hoc Dunnett or Fisher test using the Statistica software.

## CN1C(=O)CN=C(c2ccccc2)c2cc(Cl)ccc21 [DZP, diazepam, reference compound]
[1]; pilo-DZP, DZP 2 mg/kg i.m. 1 h after onset of SE, 5/22
  degree of mortality during the first 48 h after SE: 23%
[2]; pilo-DZP, first week
  frequency of stage IV-V SRS: 11.3 SRS per week
[2]; pilo-DZP, n=9
  latency to SRS: 18.2 ± 6.9 days
[3]; DZP 2.5 mg/kg i.m., group devoted to cell counting at 14 days, 4/11
  degree of mortality over the first 48 h after SE: 36%
[3]; DZP 2.5 mg/kg i.m., group devoted to latency to SRS and late cell counting, 1/14
  degree of mortality over the first 48 h after SE: 7%
[4]; DZP and TC30 groups
  frequency of spontaneous seizures over four weeks of recording: tendency to be higher
[4]; DZP, 14 animals
  Latency to the first spontaneous seizure: 15.5 ± 2.3 days and 15.5 ± 2.34 days

## NC(=O)OC[C@@H](O)c1ccccc1Cl [Formula 7]
[1]; pilo-TC10, TC 10 mg/kg i.p. 1 h after onset of SE, 6/23
  degree of mortality during the first 48 h after SE: 26%
[1]; pilo-TC30, TC 30 mg/kg i.p. 1 h after onset of SE, 5/25
  degree of mortality during the first 48 h after SE: 20%
[1]; pilo-TC60, TC 60 mg/kg i.p. 1 h after onset of SE, 1/23, p<0.01
  degree of mortality during the first 48 h after SE: 4%
[2]; TC 60 mg/kg, subgroup of animals with delayed SRS
  mean delay to becoming epileptic relative to the other groups of animals: about 9 fold
[2]; TC 60 mg/kg, 4 out of 11
  rats in which occurrence of spontaneous seizures was delayed: 36%
[2]; TC10, TC30 and TC60 (with early SRS onset) groups, first week, significantly reduced vs pilo-DZP
  frequency of stage IV-V SRS: 2.3-6.1 SRS per week
[2]; TC60 (60 mg/kg)
  absence of epilepsy: one rat did not become epileptic in a delay of 9 months post-SE
[2]; TC60 (60 mg/kg), subgroup with latency similar to other groups, n=7
  latency to SRS: 17.6 ± 8.7 days
[2]; TC60 (60 mg/kg), subgroup with much longer delay, mean, n=4
  latency to SRS: 149.8 ± 36.0 days
[2]; pilo-TC10 (10 mg/kg, 7-day treatment), n=7
  latency to SRS: 15.4 ± 5.1 days
[2]; pilo-TC10, weeks 3 and 4
  frequency of stage III SRS: significantly increased over pilo-DZP values
[2]; pilo-TC30 (30 mg/kg, 7-day treatment), n=10
  latency to SRS: 18.9 ± 9.0 days
[2]; pilo-TC60 group with early SRS onset, weeks 2-4, significantly reduced vs pilo-DZP
  frequency of stage IV-V SRS: 0.6-0.9 seizure per week
[3]; TC30 (30 mg/kg i.p.), group devoted to cell counting at 14 days, 4/12
  degree of mortality over the first 48 h after SE: 33%
[3]; TC30, group devoted to latency to SRS and late cell counting, 3/11
  degree of mortality over the first 48 h after SE: 27%
[3]; TC60 (60 mg/kg i.p.), group devoted to cell counting at 14 days, 1/12
  degree of mortality over the first 48 h after SE: 8%
[3]; TC60, group devoted to latency to SRS and late cell counting, 0/10
  degree of mortality over the first 48 h after SE: 0%
[3]; TC90 (90 mg/kg i.p.), group devoted to cell counting at 14 days, 0/10
  degree of mortality over the first 48 h after SE: 0%
[3]; TC90, group devoted to latency to SRS and late cell counting, 0/11
  degree of mortality over the first 48 h after SE: 0%
[3]; TC120 (120 mg/kg i.p.), group devoted to cell counting at 14 days, 4/12
  degree of mortality over the first 48 h after SE: 33%
[3]; TC120, group devoted to latency to SRS and late cell counting, 0/9
  degree of mortality over the first 48 h after SE: 0%
[4]; DZP and TC30 groups
  frequency of spontaneous seizures over four weeks of recording: tendency to be higher
[4]; TC 90 mg/kg, 4/11
  rats with short latencies to seizures (shorter than 40 days after SE): 36%
[4]; TC 120 mg/kg, 1/9
  rats with short latencies to seizures (shorter than 40 days after SE): 11%
[4]; TC 60, 90 and 120 mg/kg, subgroup of 2-4 animals per group
  latency to epilepsy of the long latency subgroup relative to the short latency: 4-6 times
[4]; TC60, 90 and 120 groups, significant for total or mean number of seizures over the four weeks
  frequency of spontaneous seizures over four weeks of recording: lower
[4]; TC at 30 mg/kg (so in the source), 7/10
  rats with short latencies to seizures (shorter than 40 days after SE): 70%
[4]; at both of the two highest doses of TC (90 and 120 mg/kg)
  percentage of non-epileptic rats (no seizure over 150 days post-SE): 45%
[4]; pilo-TC30 (30 mg/kg), 8 animals, listed as TC
  Latency to the first spontaneous seizure: 11.6 ± 2.5 days
[4]; pilo-TC60 (60 mg/kg), Long latency subgroup (n = 3)
  Latency to the first spontaneous seizure: 76.7 ± 15.6 °° days
[4]; pilo-TC60 (60 mg/kg), Short latency subgroup (n = 7)
  Latency to the first spontaneous seizure: 17.4 ± 5.4 days
[4]; pilo-TC90 (90 mg/kg), Long latency subgroup (n = 2)
  Latency to the first spontaneous seizure: 52.0 ± 1.0 ° days
[4]; pilo-TC90 (90 mg/kg), Short latency subgroup (n = 4)
  Latency to the first spontaneous seizure: 14.8 ± 5.7 days
[4]; pilo-TC120 (120 mg/kg), Long latency subgroup (n = 4)
  Latency to the first spontaneous seizure: 84.5 ± 16.7 °° days
[4]; pilo-TC120 (120 mg/kg), Non epileptic subgroup (n = 4), no seizure over 150 days post-SE
  Latency to the first spontaneous seizure: 150** °° days
[4]; pilo-TC120 (120 mg/kg), Short latency subgroup (n = 1)
  Latency to the first spontaneous seizure: 13.0 days
